Experimental data from PubChem BioAssay (NCI).
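Assay format: 96-well plates, 48-hour exposure. TGI marks complete inhibition of growth.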

Columns and labels:
Test in all cases: NCI-60 cell line screen, 48 h
SF-539 CNS = tested on: SF-539 CNS
CCRF-CEM leukemia = tested on: CCRF-CEM leukemia
TK-10 renal = tested on: TK-10 renal
CAKI-1 renal = tested on: CAKI-1 renal
UACC-62 melanoma = tested on: UACC-62 melanoma
HOP-62 NSCLC = tested on: HOP-62 NSCLC
HT29 colon = tested on: HT29 colon
UACC-257 melanoma = tested on: UACC-257 melanoma
M14 melanoma = tested on: M14 melanoma
786-0 renal = tested on: 786-0 renal
A549 NSCLC = tested on: A549 NSCLC
NCI-H23 lung = tested on: NCI-H23 lung
OVCAR-3 ovarian = tested on: OVCAR-3 ovarian
HL-60(TB) leukemia = tested on: HL-60(TB) leukemia
SK-OV-3 ovarian = tested on: SK-OV-3 ovarian
HCC-2998 colon = tested on: HCC-2998 colon
KM12 colon = tested on: KM12 colon
SK-MEL-5 melanoma = tested on: SK-MEL-5 melanoma
T-47D breast = tested on: T-47D breast
SK-MEL-2 melanoma = tested on: SK-MEL-2 melanoma
ACHN renal = tested on: ACHN renal
MCF7 breast = tested on: MCF7 breast
MDA-N = tested on: MDA-N
UO-31 renal = tested on: UO-31 renal
OVCAR-8 ovarian = tested on: OVCAR-8 ovarian
HCT-116 colon = tested on: HCT-116 colon
HS 578T breast = tested on: HS 578T breast
A498 renal = tested on: A498 renal
COLO 205 colon = tested on: COLO 205 colon
DU-145 prostate = tested on: DU-145 prostate
LOX IMVI melanoma = tested on: LOX IMVI melanoma
PC-3 prostate = tested on: PC-3 prostate
RXF 393 renal = tested on: RXF 393 renal
SF-295 CNS = tested on: SF-295 CNS
HCT-15 colon = tested on: HCT-15 colon
MOLT-4 leukemia = tested on: MOLT-4 leukemia
MALME-3M melanoma = tested on: MALME-3M melanoma
EKVX NSCLC = tested on: EKVX NSCLC
SR leukemia = tested on: SR leukemia
K-562 leukemia = tested on: K-562 leukemia
OVCAR-5 ovarian = tested on: OVCAR-5 ovarian
OVCAR-4 ovarian = tested on: OVCAR-4 ovarian
NCI-H226 lung = tested on: NCI-H226 lung
NCI/ADR-RES ovarian = tested on: NCI/ADR-RES ovarian
U251 CNS = tested on: U251 CNS
SNB-19 CNS = tested on: SNB-19 CNS
HOP-92 NSCLC = tested on: HOP-92 NSCLC
MDA-MB-231 breast = tested on: MDA-MB-231 breast
SNB-75 CNS = tested on: SNB-75 CNS
RPMI-8226 leukemia = tested on: RPMI-8226 leukemia
IGROV1 ovarian = tested on: IGROV1 ovarian
SN12C renal = tested on: SN12C renal
NCI-H522 lung = tested on: NCI-H522 lung
BT-549 breast = tested on: BT-549 breast
MDA-MB-435 = tested on: MDA-MB-435
SF-268 CNS = tested on: SF-268 CNS
SW-620 colon = tested on: SW-620 colon
NCI-H460 lung = tested on: NCI-H460 lung
SK-MEL-28 melanoma = tested on: SK-MEL-28 melanoma

Measured: TGI

O=C(NCCCl)N(O)C(=O)Nc1ccccc1
not listed: SK-MEL-28 melanoma
> 100 µM: all other assays above

C=CC1C(OC2OC(CO)C(O)C(O)C2O)OC=C(C(=O)OC)C1CC1CC(=O)CC(CCc2ccc(O)cc2)O1 (configuration not stated)
> 100 µM: all assays above
